Assay results taken from paper PMC11012124, “Synthesis of Novel Triazine-Based Chalcones and 8,9-dihydro-7H-pyrimido[4,5-b][1,4]diazepines as Potential Leads in the Search of Anticancer, Antibacterial and Antifungal Agents” (International Journal of Molecular Sciences, 2024).

Tests used:
Assay in all cases: cells
A549/ATCC = conditions: Homo sapiens, A549, 48 h
HL-60(TB) = conditions: Homo sapiens, HL-60, 48 h
T-47D = conditions: Homo sapiens, T47D, 48 h
U251 = conditions: Homo sapiens, U-251, 48 h
NCI-H460 = conditions: Homo sapiens, NCI-H460, 48 h
MOLT-4 = conditions: Homo sapiens, MOLT-4, 48 h
HS 578T = conditions: Homo sapiens, 48 h
SK-MEL-2 = conditions: Homo sapiens, SK-MEL-2, 48 h
SF-268 = conditions: Homo sapiens, SF-268, 48 h
786-0 = conditions: Homo sapiens, 786-0, 48 h
HCT-116 = conditions: Homo sapiens, HCT-116, 48 h
NCI-H522 = conditions: Homo sapiens, NCI-H522, 48 h
SNB-75 = conditions: Homo sapiens, SNB-75, 48 h
K-562 = conditions: Homo sapiens, K562, 48 h
SF-539 = conditions: Homo sapiens, SF-539, 48 h
MDA-MB-231/ATCC = conditions: Homo sapiens, MDA-MB-231, 48 h
SN12C = conditions: Homo sapiens, 48 h
A498 = conditions: Homo sapiens, A498, 48 h
CCRF-CEM = conditions: Homo sapiens, 48 h
HCC-2998 = conditions: Homo sapiens, HCC 2998, 48 h
PC-3 = conditions: Homo sapiens, PC-3, 48 h
SNB-19 = conditions: Homo sapiens, SNB-19, 48 h
COLO 205 = conditions: Homo sapiens, COLO 205, 48 h
M14 = conditions: Homo sapiens, M14, 48 h
CAKI-1 = conditions: Homo sapiens, CAKI-1, 48 h
UACC-257 = conditions: Homo sapiens, UACC-257, 48 h
KM12 = conditions: Homo sapiens, KM12, 48 h
LOX IMVI = conditions: Homo sapiens, 48 h
MDA-MB-468 = conditions: Homo sapiens, MDA-MB-468, 48 h
SK-MEL-5 = conditions: Homo sapiens, SK-MEL-5, 48 h
UACC-62 = conditions: Homo sapiens, UACC-62, 48 h
EKVX = conditions: Homo sapiens, 48 h
HT29 = conditions: Homo sapiens, HT-29, 48 h
UO-31 = conditions: Homo sapiens, UO-31, 48 h
SK-MEL-28 = conditions: Homo sapiens, SK-MEL-28, 48 h
HOP-92 = conditions: Homo sapiens, HOP-92, 48 h

Nc1nc(N)c2c(n1)NC(c1ccccc1)CC(c1ccc(Nc3nc(NCCO)nc(Nc4ccc(Cl)cc4)n3)cc1)=N2 (stereo not shown) [33a]
GI50 (A549/ATCC): 2840 nM
CC50 (A549/ATCC; read-out: LC50): > 100000 nM
GI50 (HL-60(TB)): 320 nM
CC50 (HL-60(TB); read-out: LC50): > 100000 nM
GI50 (T-47D): 1520 nM
CC50 (T-47D; read-out: LC50): 7290 nM
GI50 (U251; U251, 48 h): 1530 nM
CC50 (U251; read-out: LC50): 5840 nM
GI50 (NCI-H460): 1850 nM
CC50 (NCI-H460; read-out: LC50): 6510 nM
GI50 (MOLT-4): < 10 nM
CC50 (MOLT-4; read-out: LC50): > 100000 nM
GI50 (HS 578T): 1980 nM
CC50 (HS 578T; read-out: LC50): > 100000 nM
GI50 (SK-MEL-2): 1380 nM
CC50 (SK-MEL-2; read-out: LC50): 5600 nM
GI50 (SF-268): 1870 nM
GI50 (786-0): 1630 nM
CC50 (786-0; read-out: LC50): 5800 nM
GI50 (HCT-116): 1510 nM
CC50 (HCT-116; read-out: LC50): 5330 nM
GI50 (NCI-H522): 1790 nM
CC50 (NCI-H522; read-out: LC50): 6770 nM
GI50 (SNB-75): 1560 nM
CC50 (SNB-75; read-out: LC50): 6290 nM
GI50 (K-562; K-562, 48 h): 1010 nM
CC50 (K-562; read-out: LC50): > 100000 nM
GI50 (SF-539): 1600 nM
CC50 (SF-539; read-out: LC50, SF-539, 48 h): 5850 nM
GI50 (MDA-MB-231/ATCC): 1750 nM
CC50 (MDA-MB-231/ATCC; read-out: LC50): 6940 nM
GI50 (SN12C): 1740 nM
CC50 (SN12C; read-out: LC50): 7200 nM
GI50 (A498): 1540 nM
CC50 (A498; read-out: LC50): 5960 nM
GI50 (CCRF-CEM): 950 nM
CC50 (CCRF-CEM; read-out: LC50): > 100000 nM
GI50 (HCC-2998): 1680 nM
CC50 (HCC-2998; read-out: LC50): 5720 nM
GI50 (PC-3): 1590 nM
GI50 (SNB-19): 1580 nM
CC50 (SNB-19; read-out: LC50): 5640 nM
GI50 (COLO 205): 1790 nM
CC50 (COLO 205; read-out: LC50): 6090 nM
GI50 (M14): 1840 nM
CC50 (M14; read-out: LC50): 6100 nM
GI50 (CAKI-1): 2300 nM
CC50 (CAKI-1; read-out: LC50): 24800 nM
GI50 (UACC-257): 1900 nM
CC50 (UACC-257; read-out: LC50): 6430 nM
GI50 (KM12): 1900 nM
CC50 (KM12; read-out: LC50): 6610 nM
GI50 (LOX IMVI): 1540 nM
CC50 (LOX IMVI; read-out: LC50, LOX IMVI, 48 h): 5660 nM
GI50 (MDA-MB-468): 1510 nM
CC50 (MDA-MB-468; read-out: LC50): 5930 nM
GI50 (SK-MEL-5): 1420 nM
CC50 (SK-MEL-5; read-out: LC50): 5210 nM
GI50 (UACC-62): 1840 nM
CC50 (UACC-62; read-out: LC50): 6000 nM
GI50 (EKVX): 1640 nM
CC50 (EKVX; read-out: LC50): 6120 nM
GI50 (HT29): 1770 nM
CC50 (HT29; read-out: LC50): 6280 nM
GI50 (UO-31): 1870 nM
CC50 (UO-31; read-out: LC50): 9830 nM
GI50 (SK-MEL-28): 1730 nM
CC50 (SK-MEL-28; read-out: LC50): 5640 nM
GI50 (HOP-92): 1420 nM
CC50 (HOP-92; read-out: LC50): 6740 nM
